The test system of one data set is Plasmodium falciparum. Briefly: Antimalarial activity against Plasmodium falciparum K1 at pH 7.4 by microplate assay. The data set is classed as functional, organism-based.
The test system of the next data set is Trypanosoma cruzi. The data set can be described thus: Antiprotozoal activity against Trypanosoma cruzi Tulahuen C4 at pH 7.4 by microplate assay. Format: functional, organism-based.
Data set [1] relates to Trypanosoma brucei rhodesiense. The data set can be described thus: Antiprotozoal activity against Trypanosoma brucei rhodesiense STIB900 at pH 7.4 by microplate assay. The data set is classed as functional, organism-based.
Another data set deals with Leishmania donovani. The data set can be described thus: Antiprotozoal activity against Leishmania donovani MHOM/ET/67/L82 at pH 7.4 by microplate assay. The data set is classed as functional, organism-based.
For the next data set, the system named is L6. The data set can be described thus: Cytotoxicity against rat L6 cells. Format: cell-based.
A short description of data set [2]: Selectivity index, ratio of IC50 for rat L6 cells to IC50 for Plasmodium falciparum K1. The data set is classed as toxicity, cell-based. To be noted: read-out: Ratio IC50.
The nature of data set [3]: Selectivity index, ratio of IC50 for rat L6 cells to IC50 for Trypanosoma cruzi Tulahuen C4. Format: toxicity, cell-based. The settings on record: read-out: Ratio IC50.
Data set [4] in a line: Selectivity index, ratio of IC50 for rat L6 cells to IC50 for Trypanosoma brucei rhodesiense STIB900. Format: toxicity, cell-based. To be noted: read-out: Ratio IC50.
The nature of data set [5]: Selectivity index, ratio of IC50 for rat L6 cells to IC50 for Leishmania donovani MHOM/ET/67/L82. Format: toxicity, cell-based. To be noted: read-out: Ratio IC50.

Each structure is given as a SMILES string.

In the case of `CCN(CC)c1ccc2nc3c4ccccc4/c(=N\c4ccccc4)cc-3oc2c1`, the half-maximal inhibitory concentration (IC50) was 0.208 µM in the data set with Plasmodium falciparum; over 229 µM in the data set on Trypanosoma cruzi; 88.5 µM in data set [1]; 20.1 µM in the data set with Leishmania donovani; 180 µM with L6. Moreover, the selectivity ratio was 863 in data set [2], under 0.79 in data set [3], 2.03 in data set [4] and 8.94 in data set [5].
In the case of `CCN(CC)c1ccc2nc3c4ccccc4/c(=N\c4ccc(C)cc4)cc-3oc2c1`, the 50% inhibitory concentration (IC50) in the data set on Plasmodium falciparum was determined as 0.253 µM; in the data set on Trypanosoma cruzi, 20.9 µM; in data set [1], 36.2 µM; with Leishmania donovani, 10.7 µM; with L6, 134 µM. Besides, the selectivity ratio in [2] is 531; in [3], 6.42; in data set [4], 3.71; in data set [5], 12.5.
`CCN(CC)c1ccc2nc3c4ccccc4/c(=N\c4ccc(OC)cc4)cc-3oc2c1`: the 50% inhibitory concentration (IC50) turned out to be 0.04 µM with Plasmodium falciparum; 20.3 µM with Trypanosoma cruzi; 14.9 µM in data set [1]; 5.2 µM in the data set with Leishmania donovani; 57.2 µM in the data set on L6. In addition, the selectivity ratio in data set [2] came to 1420; in [3] it was 2.82; in [4] it was 3.84; in data set [5] it was 10.9.
On to `CCN(CC)c1ccc2nc3c4ccccc4/c(=N\c4cccc(OC)c4)cc-3oc2c1`, for which the IC50 in the data set with Plasmodium falciparum was found to be 0.045 µM; with Trypanosoma cruzi, 143 µM; in data set [1], 11.3 µM; with Leishmania donovani it was 2.9 µM; in the data set with L6, 39.6 µM. Further, the selectivity ratio in data set [2] is 883; in data set [3], 0.28; in data set [4], 3.52; in [5], 13.9.
`CCN(CC)c1ccc2nc3c4ccccc4/c(=N\c4ccccc4Cl)cc-3oc2c1`: the concentration for half-maximal inhibition (IC50) with Plasmodium falciparum is 0.215 µM; in the data set with Trypanosoma cruzi, 78.8 µM; in data set [1] it was 85.4 µM; in the data set with Leishmania donovani it was 23.3 µM; with L6, 56.2 µM. Further, the selectivity ratio in data set [2] was found to be 261; in data set [3], 0.71; in [4], 0.66; in data set [5], 2.41.
As for `CCN(CC)c1ccc2nc3c4ccccc4/c(=N\c4cccc(Cl)c4)cc-3oc2c1`, the 50% inhibitory concentration (IC50) was found to be 0.209 µM in the data set on Plasmodium falciparum; 76.7 µM in the data set on Trypanosoma cruzi; 129 µM in [1]; 28.6 µM in the data set on Leishmania donovani; 129 µM in the data set with L6. The selectivity ratio in [2] was determined as 617; in [3], 1.68; in [4], 1; in data set [5], 4.5.
For `CCN(CC)c1ccc2nc3c4ccccc4/c(=N\c4ccc([N+](=O)[O-])cc4)cc-3oc2c1`, the half-inhibitory concentration (IC50) with Plasmodium falciparum is 0.135 µM; in the data set on Trypanosoma cruzi, 56.9 µM; in data set [1] it was 198 µM; with Leishmania donovani it was over 205 µM; in the data set on L6, 51.9 µM. Also, the selectivity ratio in data set [2] is 386; in [3], 0.91; in data set [4], 0.26; in [5], under 0.25.
`CCN(CC)c1ccc2nc3c4ccccc4/c(=N\c4ccc([N+](=O)[O-])cc4Cl)cc-3oc2c1`: the IC50 with Plasmodium falciparum came to 1.93 µM; in the data set with Trypanosoma cruzi it was 10.9 µM; in data set [1], 184 µM; in the data set on Leishmania donovani it was 70.5 µM; in the data set on L6, 14.6 µM. The selectivity ratio in data set [2] turned out to be 8; in data set [3], 1.34; in [4], 0.08; in data set [5], 0.21.
For the compound `CCN(CC)c1ccc2nc3c4ccccc4/c(=N\c4ccc([N+](=O)[O-])cc4C#N)cc-3oc2c1`, the concentration for half-maximal inhibition (IC50) with Plasmodium falciparum was determined as 0.205 µM; with Trypanosoma cruzi, 144 µM; in data set [1] it was 147 µM; in the data set on Leishmania donovani, 90.6 µM; in the data set on L6, 61.8 µM. For the same compound, the selectivity ratio in [2] was found to be 302; in [3], 0.43; in data set [4], 0.42; in data set [5], 0.68.
`O=C(Cn1ccnc1[N+](=O)[O-])NCc1ccccc1` [BENZNIDAZOLE] registered an IC50 in the data set with Trypanosoma cruzi of 0.886 µM.

The values above are taken from ChEMBL document CHEMBL1833875, “Synthesis and in vitro antiprotozoal activities of 5-phenyliminobenzo[a]phenoxazine derivatives” (Bioorg Med Chem Lett, 2011).
